Reference: US9284369B2, “Inhibition of angiogenesis” (Genentech, Inc., priority 2007, dated 2016)

Tests used:
[1] = system: PKR2/EG-VEGFR2 expression; experiment: Regulation of PKR2/EG-VEGFR2 expression in human bone marrow cells and neutrophils; assay type: cell-based
Description: Taqman reagents for human PKR1/EG-VEGFR1 and PKR2/EG-VEGFR2 were obtained from Applied Biosystems.
(§1) Recombinant human MCP-1, MIP-1α, MIP-1β, MIP-2, bFGF, VEGF, GM-CSF, G-CSF, SDF-1α, M-CSF, Erythropoietin (EPO) and TNFα were purchased from R&D Systems (Minneapolis, Minn.). Recombinant human IL-8, IFNγ, Bv8 (Prokineticin-2), IL-4, IL-10, IL-13, TGF-β were from PeproTech Inc. (Rocky Hill, N.J.). SCF (Stem Cell factor) was from Invitrogen Biosource (Carlsbad, Calif.). In some cases, G-CSF from Amgen (Neupogen/Filgrastim) was used. All cytokines were used at 10 ng/ml. Freshly purified cells were washed and re-suspended in HBSS media containing 0.2% BSA (low endotoxin, Serologicals Corp. Norcross, Ga.). Two million cells were incubated in 24-well plates with various cytokines and chemokines for 4 hr at 37° C. in a 5% CO2 incubator. Cells were then transferred into eppendorf tubes, centrifuged and lysed with RNA lysis buffer (Qiagen, Valencia, Calif.). Bv8 expression was assessed by Taqman with RPL19 (Ribosomal Protein L19) as the internal control gene.

[2] = system: Bv8 expression; experiment: Regulation of Bv8 gene expression in cultured human blood and bone marrow cells (Taqman); assay type: cell-based; conditions: for induction of Bv8 expression in human neutrophils and whole bone marrow cells / Bv8 expression in monocytes and lymphocytes: 10 ng/ml, 4 hr
Procedure: RNA was prepared using the RNeasy™ Mini Kit (Qiagen). 50 ng total RNA per reaction was used for the real time PCR (Taqman) analysis. For human Bv8, testis RNA (BD Biosciences) served as control. Reactions were run on 9600 Emulation mode of 7500 Real time PCR system (Applied Biosystems, Foster City, Calif.) and the absolute quantification with standard curve was used with Sequence Detection System (SDS) software. The expression level of each gene was further quantified relative to the housekeeping gene RPL19 in the same sample. The sequences of Taqman primers are as follows: Human Bv8 forward: ATG GCA CGG AAG CTA GGA (SEQ ID NO: 10), reverse: GCAGAGCTGAAGTCCTCTTGA (SEQ ID NO: 11), probe: TGCTGCTGGACCCTTCCTAAACCT (SEQ ID NO: 12); Human RPL19 forward: CGC AAG CGC CGT GAA (SEQ ID NO: 28), reverse: GGTCTCTTCCTCCTTGGATAAAGTC (SEQ ID NO: 29), probe: CCAGGCCAAGAAGGAGGAGATCATCA (SEQ ID NO: 30). Human specific VEGF forward: AAT GAC GAG GGC CTG GAG T (SEQ ID NO: 31), reverse: TTGATCCGCATAATCTGCATG (SEQ ID NO: 32), probe: TGTGCCCACTGAGGAGTCCAACATCA (SEQ ID NO: 33).
as §1

[3] = system: Bv8 expression; experiment: Regulation of Bv8 gene expression in cultured mouse BMMNCs (Taqman); assay type: cell-based; conditions: for up-regulation of Bv8 in unsorted BMMNCs: 10 ng/ml, 4 hr
Procedure: RNA from tissues or cells was prepared using the RNeasy Mini Kit® (Qiagen). 50 ng total RNA per reaction was used for the real time PCR (Taqman™) analysis. For mouse/human Bv8 and EG-VEGF/Bv8 receptor 1 (PKR-1/EG-VEGFR1, R-1), testis RNA (BD Biosciences) served as control. For mouse/human EG-VEGF/Bv8 receptor 2 (PKR-2/EG-VEGFR2, R2), hypothalamus or whole brain (BD Biosciences) served as the control tissues. Reactions were run on 9600 Emulation mode of 7500 Real […] time PCR system (Applied Biosystems) and the absolute quantification with standard curve was used with Sequence Detection System (SDS) software. The expression level of each gene was further quantified against the house-keeping gene RPL19 in the same sample. To confirm the expression of VEGFR-1, VEGFR-2, EG-VEGF/Bv8 R1 and EG-VEGF/Bv8 R2 in the tumor-associated endothelial cells, standard RT-PCR was conducted using the Titan One Tube™ RT-PCR system (Roche) and the end products were checked on 2% agarose gel (Invitrogen) for the correct size. The sequence of Taqman™ primers are as follows: […]
Recombinant mouse MCP-1, MIP-1α, MIP-1β, MIP-2, bFGF, VEGF, GM-CSF, G-CSF, SDF-1 and TNFα were purchased from R&D Systems (Minneapolis, Minn.). Recombinant mouse KC, IFNγ, Bv8 (Prokineticin-2), IL-4, IL-10, IL-13, TGF-β were from PeproTech Inc. (Rocky Hill, N.J.). […] Conditioned media at 1:3 dilution were used (final FBS concentration was 0.17%). Data were normalized against total cell number. BM cells were flushed from mouse leg bones with DMEM containing 10% FBS. Cells were centrifuged at 1200 rpm for 5 min and resuspended in HBSS media containing 0.2% BSA (low endotoxin, Serologicals Corp. Norcross, Ga.). Two million cells were incubated in 24-well plates with various cytokines for 4 hr at 37° C. in a 5% CO2 incubator. Cells were then transferred in eppendorf tubes, centrifuged and lysed by RNA lysis buffer (Qiagen, Valencia, Calif.). Bv8 expression was assessed by Taqman™ with RPL19 (Ribosomal Protein L19) as the internal control gene. In some cases, CD11b+Gr1+ or CD11b−Gr1− BM cells were obtained using FACS sorting.

[4] = system: Bv8 expression; experiment: Bv8 expression in human leukemia cell lines; assay type: cell-based
Procedure: U937, HL-60, THP-1, Hel 92.1.7, KG-1, K562, Jurkat cells were obtained from the ATCC® (Manassas, Va.). Most cells were grown in 10% FBS-containing RPMI. KG-1 cells were grown in 20% FBS-containing Iscove's modified Dulbecco's medium. For THP-1 cells, 10% FBS-containing RPMI was used with Sodium Pyruvate, HEPES and β-mercaptoethanol. For regulation studies, 1 million cells with viability higher than 95% were used. Regulation studies were performed under both normoxia and hypoxia conditions for 4 hr in 1 ml HBSS media containing 0.2% BSA.

[5] = system: human neutrophils; experiment: Chemotaxis of peripheral blood neutrophils; assay type: cell-based; conditions: for effect on neutrophil migration: all concentrations tested, data not shown
Procedure: 10^6 cells were washed with HBSS containing 0.2% BSA before putting into transwell insert with 5 μm pore size (Corning Incorporated, Lowell, Mass.). In the lower chamber, media alone or media with various cytokines at various concentrations (maximum at 200 ng/ml) was added. After 3 hr at 37° C., cells in the lower chamber were transferred, mixed with 9 ml ZPAK solution and counted on Z2 Coulter Particle Count and Size Analyzer (Beckman Coulter, Fullerton, Calif.).

[6] = target: T1, PKR1/EG-VEGFR1 (Homo sapiens, UniProt Q8TCW9); experiment: Bv8 bioactivity assay, GeneBLAzer NFAT-CHO cells transfected with PKR1/EG-VEGFR1; assay type: cell-based; conditions: Bv8 0.2-200 ng/ml; VEGF-A up to 200 ng/ml
T1 construct: host or cells: GeneBLAzer NFAT-CHO cells
Procedure: The GeneBLAzer® NFAT-CHO cells were obtained from Invitrogen Corporation (Carlsbad, Calif.). Cells were stably transfected with PKR1/EG-VEGFR1 and grown in DMEM (high glucose) containing 10% dialysed serum, 0.1 mM NEAA, 2 mM GlutaMax™ (Gibco), 1 mM sodium pyruvate, 10 μg/ml Zeocin, 500 μg/ml hygromycin. Cells were plated into 96-well Viewplate (Packard) with 2.5×10^4 in […] in 1% DMEM overnight at 5% CO2, 37° C. On the following day, cells were treated with various column fractions that were concentrated with Microcon Centrifugal Filter Devices (Ultracel YM-3) from Millipore. 0.2-0.02 ng/ml hBv8 (Peprotech Inc.) prepared in 1% DMEM was used as a positive control. One hour later, media was removed and replaced with […] Hank's solution containing 0.1% BSA and 6× loading buffer containing 1 mM CCF4 (Invitrogen Corporation). Plates were incubated for 1.5 hr at room temperature in the dark and read on Wallac plate reader at excitation wavelength of 410 nm and emission wavelength of 450/520 nm. Negative controls were cells with no ligand added and control media alone. CHO cells were stimulated with recombinant human Bv8 or pooled fractions for 1 hr before adding the β-lactamase substrate CCF4. To assess the specificity of the column fractions, anti-Bv8 antibodies 2B9 and 3F1 were added at […].

[7] = system: p44/42 MAPK; experiment: MAPK phosphorylation in TAECs (Western blot); assay type: cell-based, mouse
Procedure: TIB42-TAEC cells were starved for 6 hr in basal media supplemented with 0.5% BSA. Cells were then stimulated with human recombinant Bv8 (200 ng/ml; PeproTech), Complete Media (CM), VEGF (100 ng/ml; PeproTech) or BSA (0.5%). Cell extracts were collected at the indicated time-points. Western blot analysis of the extracts from TIB42-TAEC cells was performed using PhosphoPlus p44/42 MAPK™ antibody kit (Cell signaling).

[8] = system: TIB42-TAEC cells; experiment: In vitro tube formation of tumor-associated endothelial cells; assay type: cell-based, mouse; conditions: Bv8 200 ng/ml, VEGF-A 100 ng/ml, 36 hours
Procedure: Tumor associated endothelial cells (TAECs) were isolated using a magnetic beads sorting system (Miltenyi Biotech), essentially as previously described (Hida et al., Cancer Res 64:8249-8255 (2004)). Briefly, TIB42 mouse lymphoma cells were injected into the dorsal lateral flanks of female beige nude mice. When tumors reached a diameter of […], they were excised, minced and then digested with collagenase II (Worthington Biochemical Corporation). Cell suspensions were than filtered using 100 μm to 40 μm meshes. CD31^+ cells were finally sorted using a FITC-CD31 antibody (BD Biosciences) according to the manufacturer's instructions. CD31+ cells were seeded in gelatin coated plates in the presence of EGM-2MV media (Cambrex). After 24 hs in culture CD31+ non-adherent cells were removed by washing several times with PBS.
For in vitro tube formation, TIB42-TAEC cells (passages 6-8) were starved for 5 hs in serum free medium. After this, cells were collected and resuspended in serum free medium supplemented with 5% BSA and treated with VEGF-A (100 ng/ml), Bv8 (200 ng/ml) or no addition (control). For specificity tests, Bv8, was incubated in the presence of anti-Bv8 Mabs (10 μg/ml). 5×10^5 cells were seeded in each well of a 24 well pre-coated with Matrigel™ (BD Biosciences) and tube formation was evaluated after 36 hours.

T1 sequence (Q8TCW9 whole entry): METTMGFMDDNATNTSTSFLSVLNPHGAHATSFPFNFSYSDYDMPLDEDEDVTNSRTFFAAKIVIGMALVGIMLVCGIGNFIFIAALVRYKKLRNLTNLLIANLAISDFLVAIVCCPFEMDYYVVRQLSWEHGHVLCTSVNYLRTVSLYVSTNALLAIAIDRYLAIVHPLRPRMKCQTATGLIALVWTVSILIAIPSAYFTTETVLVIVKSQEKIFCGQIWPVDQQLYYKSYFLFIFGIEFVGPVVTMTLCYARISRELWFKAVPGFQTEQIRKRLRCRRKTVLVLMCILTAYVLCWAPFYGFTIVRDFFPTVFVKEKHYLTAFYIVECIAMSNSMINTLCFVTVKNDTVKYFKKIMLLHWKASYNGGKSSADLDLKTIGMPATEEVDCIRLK

Molecule: GM-CSF: recombinant mouse or human granulocyte-macrophage-CSF (R&D Systems)
- regulation of PKR2/EG-VEGFR2 in human bone marrow [1]: regulate PKR2/EG-VEGFR2 to a significant level
- up-regulation of PKR2/EG-VEGFR2 expression in human neutrophils ([1]; 4 hr incubation, average): 4 fold
- induction of Bv8 expression in human neutrophils and whole bone marrow cells [2]: ~2.5 fold
- inhibition of Bv8 expression in human monocytes ([2]; 4 hr treatment): about 75%
- effect on Bv8 expression ([3]; BMMNCs and sorted subsets (FIG. 1 c&d)): no effect
- Bv8 expression in HL-60 [4]: Neither G-CSF nor GM-CSF affected Bv8 expression
- induction of Bv8 expression in leukemia cell lines ([4]; any of the cell lines tested): no significant induction

Molecule: IL-1β: cytokine interleukin-1β
- induction of Bv8 expression in human neutrophils and whole bone marrow cells [2]: no stimulatory effect

Molecule: IL-6: cytokine interleukin-6
- induction of Bv8 expression in human neutrophils and whole bone marrow cells [2]: no stimulatory effect
- up-regulation of Bv8 in unsorted BMMNCs [3]: did not show any significant stimulation

Molecule: IL-8: recombinant human IL-8 (PeproTech)
- concentration required to stimulate neutrophil migration [5]: 20 nM

Molecule: MCP-1: recombinant human MCP-1 (R&D Systems)
- effect on neutrophil migration [5]: did not show any effect

Molecule: SCF: Stem Cell factor (Invitrogen Biosource)
- induction of Bv8 expression in human neutrophils and whole bone marrow cells [2]: no effect

Molecule: SDF-1: recombinant mouse SDF-1 (R&D Systems)
- up-regulation of Bv8 in unsorted BMMNCs [3]: did not show any significant stimulation

Molecule: SDF-1α
- Bv8 expression in monocytes and lymphocytes [2]: significant stimulatory effect only on monocytes
- concentration required to stimulate neutrophil migration [5]: 20 nM

Molecule: VEGF-A: recombinant vascular endothelial growth factor-A
- stimulation of PKR1/EG-VEGFR1 transfected CHO cells [6]: did not elicit any response
- MAP kinase phosphorylation in TAECs [7]: strong induction of MAP kinase phosphorylation
- tube formation in Matrigel [8]: formed tubes
- effect on neutrophil migration [5]: did not show any effect

B1: M-CSF: recombinant human M-CSF (R&D Systems) (protein, UniProt P09603 33-554, looked up)
Macrophage colony-stimulating …: EEVSEYCSHMIGSGHLQSLQRLIDSQMETSCQITFEFVDQEQLKDPVCYLKKAFLLVQDIMEDTMRFRDNTPNAIAIVQLQELSLRLKSCFTKDYEEHDKACVRTFYETPLQLLEKVKNVFNETKNLLDKDWNIFSKNCNNSFAECSSQDVVTKPDCNCLYPKAIPSSDPASVSPHQPLAPSMAPVAGLTWEDSEGTEGSSLLPGEQPLHTVDPGSAKQRPPRSTCQSFEPPETPVVKDSTIGGSPQPRPSVGAFNPGMEDILDSAMGTNWVPEEASGEASEIPVPQGTELSPSRPGGGSMQTEPARPSNFLSASSPLPASAKGQQPADVTGTALPRVGPVRPTGQDWNHTPQKTDHPSALLRDPPEPGSPRISSLRPQGLSNPSTLSAQPQLSRSHSSGSVLPLGELEGRRSTRDRRSPAEPEGGPASEGAARPLPRFNSVPLTDTGHERQSEGSFSPQLQESVFHLLVPSVILVLLAVGGLLFYRWRRRSHQEPQRADSPLEQPEGSPLTQDDRQVELPV
- induction of Bv8 expression in human neutrophils and whole bone marrow cells [2]: no effect

B2: IL-10: recombinant human IL-10 (PeproTech) (protein, UniProt P22301 19-178, looked up)
Interleukin-10: SPGQGTQSENSCTHFPGNLPNMLRDLRDAFSRVKTFFQMKDQLDNLLLKESLLEDFKGYLGCQALSEMIQFYLEEVMPQAENQDPDIKAHVNSLGENLKTLRLRLRRCHRFLPCENKSKAVEQVKNAFNKLQEKGIYKAMSEFDIFINYIEAYMTMKIRN
- Bv8 expression in monocytes and lymphocytes [2]: up-regulated
